Measured values reported in patent US9023852B2, “1, 2, 4-thiadiazol-5-ylpiperazine derivatives useful in the treatment of neurodegenerative diseases” (Remynd NV, priority 2011, dated 2015).

These compounds were tested on M17—3TAU(P301L) cells (assay: Neuroblastoma tauopathy model: inhibition of TAU-induced cytotoxicity (LDH)). Settings: Homo sapiens, 168 h; inhibition of TAU-induced toxicity (LDH), 7 days differentiation with retinoic acid.
Type: cell-based
Text: A TAU expression plasmid was constructed by sub-cloning the cDNA encoding for human TAU-P301L protein, wherein proline at position 301 is substituted by a leucine residue, into mammalian expression vector pcDNA3.1 resulting in the plasmid pcDNA3.1-TAUP301L. Plasmids pcDNA3.1 and pcDNA3.1-TAU P301L were transfected into human neuroblastoma cells (BE-M17; ATCC No. CRL-2267™) using lipofectamine reagent and subsequently, independent clonal cell lines with the plasmids stably integrated into the genome were selected by antibiotic resistance selection (Geneticin (G418)), resulting in cell lines M17.pcDNA3 and M17—3TAUP301L. Expression of the TAUP301L gene in the M17—3TAUP301L cells was confirmed by Western blot analysis.
Differentiation of the cells with RA leads to phosphorylation and subsequent aggregation of TAU, inducing a tauopathy in these cells. Cytotoxicity of cells was measured by quantification of lactate dehydrogenase (LDH) levels. In dead cells LDH is leaked out of the cells into the medium due to a loss of plasma-membrane integrity.
Briefly, 3 days preceding the experiment pre-cultures of M17.pcDNA3 and M17—3TAU(P301L) cells were prepared, starting from a stock culture, at a density of 50.000-100.000 cells/cm2 in detection medium (Optimem Reduced Serum without phenol red (Gibco, Cat. 31985-047) supplemented with 1% fetal calf serum (FCS), 1 mM sodium pyruvate, 1× non-essential amino acids (NEAA), 500 μg/ml G418 and 0.5× antibiotic/antimycotic (ABAM)). At the day of the experiment these precultures were diluted to ˜0, 1.106 cells/ml in detection medium without FCS and 60 μL of this suspension is dispensed per well into a 96-well microtiter plate. After 3 hours of incubation at 37° C./5% CO2 an equal volume of detection medium containing 2.5 μM RA was added and subsequently incubated for 7 days at 37° C./5% CO2. After 7 days, LDH activity was determined using the Promega Cytotox 96 Non-Radioactive cytotoxicity assay (Cat. G1780), according the manufacturer's instructions. Cytotoxicity is measured as the ratio of LDH increase in the supernatant divided by the LDH increase in the total cell suspension (sum of the LDH measured in cells and supernatant).
The M17—3TAU(P301L) cell line makes it possible to assess the ability of novel compounds to inhibit TAU-induced cytotoxicity. […] Compounds were tested for their ability to hamper TAU-induced toxicity at different concentrations, ranging from low non-effective concentrations to high potent concentrations. Afterwards, the dose-dependent inhibition curve was used to calculate their EC50 (Table 1).

SMILES	EC50
Cc1ccc(-c2nsc(N3CCN(Cc4ccc(Cl)cc4Cl)CC3)n2)cc1 [Example 3, 1-(2,4-Dichloro-benzyl)-4-(3-p-tolyl-[1,2,4]thiadiazol-5-yl)-piperazine]	987 nM
Cc1ccc(-c2nsc(N3CCN(CCc4ccccc4)CC3)n2)cc1 [Example 4, 1-Phenethyl-4-(3-p-tolyl-[1,2,4]thiadiazol-5-yl)-piperazine]	115 nM
Cc1ccc(-c2nsc(N3CCN(CCc4ccc(Cl)c(Cl)c4)CC3)n2)cc1 [Example 5, 1-[2-(3,4-Dichloro-phenyl)-ethyl]-4-(3-p-tolyl-[1,2,4]thiadiazol-5-yl)-piperazine]	396 nM
Cc1ccc(-c2nsc(N3CCN(Cc4ccccc4C)CC3)n2)cc1 [Example 6, 1-(2-Methyl-benzyl)-4-(3-p-tolyl-[1,2,4]thiadiazol-5-yl)-piperazine]	278 nM
Cc1ccccc1CN1CCN(c2nc(-c3ccc(Cl)cc3)ns2)CC1 [Example 12, 1-[3-(4-Chloro-phenyl)-[1,2,4]thiadiazol-5-yl]-4-(2-methyl-benzyl)-piperazine]	268 nM
COc1cccc(-c2nsc(N3CCN(Cc4ccccc4C)CC3)n2)c1 [Example 13, 1-[3-(3-Methoxy-phenyl)-[1,2,4]thiadiazol-5-yl]-4-(2-methyl-benzyl)-piperazine]	215 nM
COc1cccc(CCN2CCN(c3nc(-c4ccc(Cl)cc4)ns3)CC2)c1 [Example 14, 1-[3-(4-Chloro-phenyl)-[1,2,4]thiadiazol-5-yl]-4-[2-(3-methoxy-phenyl)-ethyl]-piperazine]	4.8 nM
COc1cccc(CCN2CCN(c3nc(-c4cccc(OC)c4)ns3)CC2)c1 [Example 15, 1-[2-(3-Methoxy-phenyl)-ethyl]-4-[3-(3-methoxy-phenyl)-[1,2,4]thiadiazol-5-yl]-piperazine]	21.4 nM
COc1cccc(CCN2CCN(c3nc(-c4ccc(C)cc4)ns3)CC2)c1 [Example 16, 1-[2-(3-Methoxy-phenyl)-ethyl]-4-(3-p-tolyl-[1,2,4]thiadiazol-5-yl)-piperazine]	65.3 nM
COc1ccc(CCN2CCN(c3nc(-c4ccc(Cl)cc4)ns3)CC2)cc1 [Example 17, 1-[3-(4-Chloro-phenyl)-[1,2,4]thiadiazol-5-yl]-4-[2-(4-methoxy-phenyl)-ethyl]-piperazine]	0.8 nM
COc1ccc(CCN2CCN(c3nc(-c4cccc(OC)c4)ns3)CC2)cc1 [Example 18, 1-[2-(4-Methoxy-phenyl)-ethyl]-4-[3-(3-methoxy-phenyl)[1,2,4]thiadiazol-5-yl]-piperazine]	367 nM
COc1ccc(CCN2CCN(c3nc(-c4ccc(C)cc4)ns3)CC2)cc1 [Example 19, 1-[2-(4-Methoxy-phenyl)-ethyl]-4-(3-p-tolyl-[1,2,4]thiadiazol-5-yl)-piperazine]	2 nM
COc1cccc(CCN2CCN(c3nc(-c4ccncc4)ns3)CC2)c1 [Example 20, 1-[2-(3-Methoxy-phenyl)-ethyl]-4-(3-pyridin-4-yl-[1,2,4]thiadiazol-5-yl)-piperazine]	174 nM
Fc1cccc(CCN2CCN(c3nc(-c4ccc(Cl)cc4)ns3)CC2)c1 [Example 21, 1-[3-(4-Chloro-phenyl)-[1,2,4]thiadiazol-5-yl]-4-[2-(3-fluoro-phenyl)-ethyl]-piperazine]	9.5 nM
Clc1ccc(-c2nsc(N3CCN(CCc4cccc(Cl)c4)CC3)n2)cc1 [Example 22, 1-[2-(3-Chloro-phenyl)-ethyl]-4-[3-(4-chloro-phenyl)-[1,2,4]thiadiazol-5-yl]-piperazine]	4.2 nM
Cc1cccc(CCN2CCN(c3nc(-c4ccc(Cl)cc4)ns3)CC2)c1 [Example 23, 1-[3-(4-Chloro-phenyl)-[1,2,4]thiadiazol-5-yl]-4-(2-m-tolyl-ethyl)-piperazine]	1.9 nM
Fc1ccc(CCN2CCN(c3nc(-c4ccc(Cl)cc4)ns3)CC2)cc1 [Example 24, 1-[3-(4-Chloro-phenyl)-[1,2,4]thiadiazol-5-yl]-4-[2-(4-fluoro-phenyl)-ethyl]-piperazine]	0.7 nM

SMILES	EC50
Clc1ccc(CCN2CCN(c3nc(-c4ccc(Cl)cc4)ns3)CC2)cc1 [Example 25, 1-[2-(4-Chloro-phenyl)-ethyl]-4-[3-(4-chloro-phenyl)-[1,2,4]thiadiazol-5-yl]-piperazine]	7.7 nM
Cc1ccc(CCN2CCN(c3nc(-c4ccc(Cl)cc4)ns3)CC2)cc1 [Example 26, 1-[3-(4-Chloro-phenyl)-[1,2,4]thiadiazol-5-yl]-4-(2-p-tolyl-ethyl)-piperazine]	4.9 nM
COc1ccccc1CCN1CCN(c2nc(-c3ccc(Cl)cc3)ns2)CC1 [Example 27, 1-[3-(4-Chloro-phenyl)-[1,2,4]thiadiazol-5-yl]-4-[2-(2-methoxy-phenyl)-ethyl]-piperazine]	16.7 nM
Fc1ccccc1CCN1CCN(c2nc(-c3ccc(Cl)cc3)ns2)CC1 [Example 28, 1-[3-(4-Chloro-phenyl)-[1,2,4]thiadiazol-5-yl]-4-[2-(2-fluoro-phenyl)-ethyl]-piperazine]	45.2 nM
Clc1ccc(-c2nsc(N3CCN(CCc4ccccc4Cl)CC3)n2)cc1 [Example 29, 1-[2-(2-Chloro-phenyl)-ethyl]-4-[3-(4-chloro-phenyl)-[1,2,4]thiadiazol-5-yl]-piperazine]	1.3 nM
COc1cccc(CCN2CCN(c3nc(-c4ccc(C(F)(F)F)nc4)ns3)CC2)c1 [Example 30, 1-[2-(3-Methoxy-phenyl)-ethyl]-4-[3-(6-trifluoromethyl-pyridin-3-yl)-[1,2,4]thiadiazol-5-yl]-piperazine]	147 nM
COc1cccc(CCN2CCN(c3nc(-c4cc(Cl)cc(Cl)c4)ns3)CC2)c1 [Example 31, 1-[3-(3,5-Dichloro-phenyl)-[1,2,4]thiadiazol-5-yl]-4-[2-(3-methoxy-phenyl)-ethyl]-piperazine]	21.1 nM
COc1cccc(CCCN2CCN(c3nc(-c4ccc(Cl)cc4)ns3)CC2)c1 [Example 32, 1-[3-(4-Chloro-phenyl)-[1,2,4]thiadiazol-5-yl]-4-[3-(3-methoxy-phenyl)-propyl]-piperazine]	368 nM
COc1cccc(CCN2CCN(c3nc(-c4cccs4)ns3)CC2)c1 [Example 33, 1-[2-(3-Methoxy-phenyl)-ethyl]-4-(3-thiophen-2-yl-[1,2,4]thiadiazol-5-yl)-piperazine]	158 nM
COc1cccc(CCN2CCN(c3nc(-c4ccc(F)cc4)ns3)CC2)c1 [Example 34, 1-[3-(4-Fluoro-phenyl)-[1,2,4]thiadiazol-5-yl]-4-[2-(3-methoxy-phenyl)-ethyl]-piperazine]	1.4 nM
COc1cccc(CCN2CCN(c3nc(-c4ccccc4OC)ns3)CC2)c1 [Example 35, 1-[2-(3-Methoxy-phenyl)-ethyl]-4-[3-(2-methoxy-phenyl)-[1,2,4]thiadiazol-5-yl]-piperazine]	3.5 nM
COc1cccc(CCN2CCN(c3nc(-c4ccc(OC(F)(F)F)cc4)ns3)CC2)c1 [Example 36, 1-[2-(3-Methoxy-phenyl)-ethyl]-4-[3-(4-trifluoromethoxy-phenyl)-[1,2,4]thiadiazol-5-yl]-piperazine]	119 nM
COc1ccc(CCN2CCN(c3nc(-c4ccc(OC(F)(F)F)cc4)ns3)CC2)cc1 [Example 37, 1-[2-(4-Methoxy-phenyl)-ethyl]-4-[3-(4-trifluoromethoxy-phenyl)-[1,2,4]thiadiazol-5-yl]-piperazine]	2.9 nM
FC(F)(F)Oc1cccc(CCN2CCN(c3nc(-c4ccc(Cl)cc4)ns3)CC2)c1 [Example 38, 1-[3-(4-Chloro-phenyl)-[1,2,4]thiadiazol-5-yl]-4-[2-(3-trifluoromethoxy-phenyl)-ethyl]-piperazine]	211 nM
COc1ccccc1CCCN1CCN(c2nc(-c3ccc(Cl)cc3)ns2)CC1 [Example 39, 1-[3-(4-Chloro-phenyl)-[1,2,4]thiadiazol-5-yl]-4-[3-(2-methoxy-phenyl)-propyl]-piperazine]	43.5 nM
COc1ccc(CCN2CCN(c3nc(-c4ccc(OC)cc4)ns3)CC2)cc1 [Example 40, 1-[2-(4-Methoxy-phenyl)-ethyl]-4-[3-(4-methoxy-phenyl)-[1,2,4]thiadiazol-5-yl]-piperazine]	14.1 nM
COc1ccc(CCN2CCN(c3nc(-c4cccc(Cl)c4)ns3)CC2)cc1 [Example 41, 1-[3-(3-Chloro-phenyl)-[1,2,4]thiadiazol-5-yl]-4-[2-(4-methoxy-phenyl)-ethyl]-piperazine]	0.7 nM
